system: A. baumannii; test: Biofilm inhibition assay (crystal violet, 96-well PVC plate); assay type: cell-based; details: Acinetobacter baumannii; LB medium, 37° C., 24 hours, crystal violet OD540; read-out: ACTIVITY against A. baumannii: IC50 (biofilm inhibition)
Description: Biofilm inhibition assays were performed by taking an overnight culture of bacterial strain and subculturing it at an OD600 of 0.10 into LB medium. The compound being tested was then added at a predetermined concentration and then aliquoted (100 μL) into the wells of a 96-well PVC microtiter plate (Wells not used for samples were filled with 100 μL of de-ionized water). Plates were then wrapped in GLAD Press n' Seal® and incubated under stationary conditions at 37° C. After 24 hours, the media was discarded from the wells and the plates were washed thoroughly with tap water. Plates were then stained with 100 μL of 0.1% solution of crystal violet (CV) and then incubated at an ambient temperature for 30 minutes. Sample plates were then washed with tap water again, and the remaining stain was solubilized with 200 μL of 95% ethanol. Biofilm inhibition was quantitated by measuring the OD540 for each well by transferring 125 μL of the solubilized CV stain into a polystyrene microtiter dish for analysis.

Row | IC50 | Compound
1 | < 50 µM | Nc1ncc(-c2ccccc2C#Cc2cccc(Cl)c2)[nH]1
2 | 6.54 µM | Nc1ncc(-c2ccc(C#Cc3ccccc3)cc2)[nH]1

Continued, compound first:

Row | Compound | IC50
3 | COc1ccc(C#Cc2ccccc2-c2cnc(N)[nH]2)c(C)c1 | 40 to 50 µM
4 | Nc1ncc(-c2ccc(C#Cc3cc(F)cc(F)c3)cc2)[nH]1 | < 50 µM
5 | Nc1ncc(-c2ccccc2C#Cc2ccccc2)[nH]1 | 50 to 75 µM

same assay, conditions: Acinetobacter baumannii; at 100 μM; LB medium, 37° C., 24 hours, crystal violet OD540; read-out: ACTIVITY against A. baumannii: % inhibition (biofilm inhibition)

Row | Compound | inhibition at 100 µM
6 | COc1ccccc1C#Cc1cccc(-c2cnc(N)[nH]2)c1 | 34%

Source: patent publication US9975857B2, “Inhibition of bacterial biofilms with imidazole-phenyl derivatives” (North Carolina State University, priority 2008, dated 2018)
